Paper PMC9516332 (Frontiers in Oncology, 2022)
pIC50: −log10 of the molar value. Read-outs that look alike come from different tables or passages of the source.

Legend:
134 cancer cell lines = assay: Cell viability assay (ATPlite, 72 hours), IC50 on cancer cell line panel
AP-1060 (ETV6-NTRK3) = assay: Cell viability assay; conditions: read-out: IC50 in cell proliferation assay

## COc1ccc(CN2C3CC2CN(c2ccc(-c4cc(OCC(C)(C)O)cn5ncc(C#N)c45)cn2)C3)cn1 [selpercatinib]
134 cancer cell lines; Homo sapiens, MV4-11, read-out: IC50 in cell proliferation assay, MV4-11 cell line (FLT3 ITD)
  pIC50: 6.78
134 cancer cell lines; Homo sapiens, MeWo, read-out: IC50 in cell proliferation assay, MeWo cell line
  pIC50: 5.26
134 cancer cell lines; Homo sapiens, NCCIT, read-out: IC50 in cell proliferation assay, NCC-IT cell line
  pIC50: 5.80
134 cancer cell lines; Homo sapiens, NCI-H82, read-out: IC50 in cell proliferation assay, cell line NCI-H82
  pIC50: 5.49
134 cancer cell lines; Homo sapiens, NCI-H460, read-out: IC50 in cell proliferation assay, NCI-H460 cell line
  pIC50: 5.37
134 cancer cell lines; Homo sapiens, NCI-H661, read-out: IC50 in cell proliferation assay, NCI-H661 cell line
  pIC50: 5.06
134 cancer cell lines; Homo sapiens, NCI-H716, read-out: IC50 in cell proliferation assay, cell line NCI-H716 (FGFR2-COL14A1)
  pIC50: 6.58
134 cancer cell lines; Homo sapiens, NCI-H1650, read-out: IC50 in cell proliferation assay, NCI-H1650 cell line (EGFR exon19del)
  pIC50: 5.13
134 cancer cell lines; Homo sapiens, NCI-H1975, read-out: IC50 in cell proliferation assay, NCI-H1975 cell line (EGFR p.L858R + p.T790M)
  pIC50: 4.65
134 cancer cell lines; Homo sapiens, NCI-H2228, read-out: IC50 in cell proliferation assay, NCI-H2228 cell line (EML4-ALK)
  pIC50: 4.99
134 cancer cell lines; Homo sapiens, OVCAR-3, read-out: IC50 in cell proliferation assay, cell line OVCAR-3
  pIC50: 5.25
134 cancer cell lines; Homo sapiens, PFSK-1, read-out: IC50 in cell proliferation assay, cell line PFSK-1
  pIC50: < 4.50
134 cancer cell lines; Homo sapiens, RL95-2, read-out: IC50 in cell proliferation assay, cell line RL95-2 (EGFR p.A289V)
  pIC50: 5.64
134 cancer cell lines; Homo sapiens, RPMI-7951, read-out: IC50 in cell proliferation assay, cell line RPMI-7951 (BRAF p.V600E)
  pIC50: 5.25
134 cancer cell lines; Homo sapiens, RS4-11, read-out: IC50 in cell proliferation assay, cell line RS4;11
  pIC50: 5.79
134 cancer cell lines; Homo sapiens, Rec1, read-out: IC50 in cell proliferation assay, cell line REC-1
  pIC50: 5.14
134 cancer cell lines; Homo sapiens, SHP77, read-out: IC50 in cell proliferation assay, cell line SHP-77
  pIC50: 5.09
134 cancer cell lines; Homo sapiens, SK-BR-3, read-out: IC50 in cell proliferation assay, cell line SK-BR-3 (ERBB2 amplification)
  pIC50: 4.65
134 cancer cell lines; Homo sapiens, SK-N-AS, read-out: IC50 in cell proliferation assay, cell line SK-N-AS
  pIC50: 5.42
134 cancer cell lines; Homo sapiens, SK-N-FI, read-out: IC50 in cell proliferation assay, cell line SK-N-FI
  pIC50: 5.40
134 cancer cell lines; Homo sapiens, SK-N-MC, read-out: IC50 in cell proliferation assay, cell line SK-N-MC
  pIC50: 5.48
134 cancer cell lines; Homo sapiens, SK-N-SH, read-out: IC50 in cell proliferation assay, cell line SK-N-SH (ALK p.F1174L)
  pIC50: 5.59
134 cancer cell lines; Homo sapiens, SNU-5, read-out: IC50 in cell proliferation assay, cell line SNU-5 (MET amplification)
  pIC50: < 4.50
134 cancer cell lines; Homo sapiens, SNU-16, read-out: IC50 in cell proliferation assay, cell line SNU-16 (FGFR2 amplification)
  pIC50: 6.52
134 cancer cell lines; Homo sapiens, SNU-C2B, read-out: IC50 in cell proliferation assay, cell line SNU-C2B (EGFR p.R165Q)
  pIC50: < 4.50
134 cancer cell lines; Homo sapiens, SU-DHL-1, read-out: IC50 in cell proliferation assay, cell line SU-DHL-1 (NPM1-ALK)
  pIC50: 5.56
134 cancer cell lines; Homo sapiens, SU-DHL-6, read-out: IC50 in cell proliferation assay, cell line SU-DHL-6
  pIC50: 5.34
134 cancer cell lines; Homo sapiens, SUP-T1, read-out: IC50 in cell proliferation assay, cell line SUP-T1
  pIC50: 5.63
134 cancer cell lines; Homo sapiens, SW48, read-out: IC50 in cell proliferation assay, cell line SW48 (EGFR p.G719S)
  pIC50: 5.56
134 cancer cell lines; Homo sapiens, SW480, read-out: IC50 in cell proliferation assay, cell line SW480
  pIC50: 5.40
134 cancer cell lines; Homo sapiens, SW626, read-out: IC50 in cell proliferation assay, cell line SW626
  pIC50: < 4.50
134 cancer cell lines; Homo sapiens, SW780, read-out: IC50 in cell proliferation assay, cell line SW780 (FGFR3-BAIAP2L1)
  pIC50: 5.71
134 cancer cell lines; Homo sapiens, SW837, read-out: IC50 in cell proliferation assay, cell line SW837
  pIC50: 5.46
134 cancer cell lines; Homo sapiens, SW872, read-out: IC50 in cell proliferation assay, cell line SW872 (BRAF p.V600E)
  pIC50: 5.24
134 cancer cell lines; Homo sapiens, SW900, read-out: IC50 in cell proliferation assay, cell line SW900
  pIC50: 5.30
134 cancer cell lines; Homo sapiens, SW948, read-out: IC50 in cell proliferation assay, cell line SW948
  pIC50: 5.41
134 cancer cell lines; Homo sapiens, SW982, read-out: IC50 in cell proliferation assay, cell line SW982 (BRAF p.V600E)
  pIC50: 5.45
134 cancer cell lines; Homo sapiens, SW-620, read-out: IC50 in cell proliferation assay, cell line SW620
  pIC50: 5.58
134 cancer cell lines; Homo sapiens, T98G, read-out: IC50 in cell proliferation assay, cell line T98G
  pIC50: 5.57
134 cancer cell lines; Homo sapiens, TCC-SUP, read-out: IC50 in cell proliferation assay, cell line TCCSUP
  pIC50: 5.51
134 cancer cell lines; Homo sapiens, THP-1, read-out: IC50 in cell proliferation assay, cell line THP-1
  pIC50: < 4.50
134 cancer cell lines; Homo sapiens, U2OS, read-out: IC50 in cell proliferation assay, cell line U2OS
  pIC50: 5.32
134 cancer cell lines; Homo sapiens, U-87 MG, read-out: IC50 in cell proliferation assay, cell line U-87MG ATCC
  pIC50: < 4.50
134 cancer cell lines; Homo sapiens, U-118-MG, read-out: IC50 in cell proliferation assay, cell line U-118MG
  pIC50: 5.20
134 cancer cell lines; Homo sapiens, UMUC3, read-out: IC50 in cell proliferation assay, cell line UM-UC-3
  pIC50: 5.89
134 cancer cell lines; Hs766T, read-out: IC50 in cell proliferation assay, Hs 766T cell line
  pIC50: 5.30
134 cancer cell lines; L-82, read-out: IC50 in cell proliferation assay, L-82 cell line (NPM1-ALK)
  pIC50: 5.28
134 cancer cell lines; Rh30, read-out: IC50 in cell proliferation assay, cell line Rh30
  pIC50: 5.39
134 cancer cell lines; read-out: IC50 in cell proliferation assay, 11-18 cell line (EGFR p.L858R)
  pIC50: 5.39
134 cancer cell lines; read-out: IC50 in cell proliferation assay, Hs 852.T cell line
  pIC50: 5.23
134 cancer cell lines; read-out: IC50 in cell proliferation assay, JAR cell line
  pIC50: 5.36
134 cancer cell lines; read-out: IC50 in cell proliferation assay, cell line 5637
  pIC50: 5.34
134 cancer cell lines; read-out: IC50 in cell proliferation assay, cell line A-388
  pIC50: 5.02
134 cancer cell lines; read-out: IC50 in cell proliferation assay, cell line DB
  pIC50: 5.47
134 cancer cell lines; read-out: IC50 in cell proliferation assay, cell line DEL (NPM1-ALK)
  pIC50: 5.47
134 cancer cell lines; read-out: IC50 in cell proliferation assay, cell line ES-2 (BRAF p.V600E)
  pIC50: < 4.50
134 cancer cell lines; read-out: IC50 in cell proliferation assay, cell line PA-1
  pIC50: 5.74
134 cancer cell lines; read-out: IC50 in cell proliferation assay, cell line PC-3
  pIC50: 5.41
134 cancer cell lines; read-out: IC50 in cell proliferation assay, cell line RD
  pIC50: 5.16
134 cancer cell lines; read-out: IC50 in cell proliferation assay, cell line RKO (BRAF p.V600E)
  pIC50: 5.29
134 cancer cell lines; read-out: IC50 in cell proliferation assay, cell line RL
  pIC50: 5.69
134 cancer cell lines; read-out: IC50 in cell proliferation assay, cell line RT-4 (FGFR3-TACC3)
  pIC50: 5.86
134 cancer cell lines; read-out: IC50 in cell proliferation assay, cell line SR (NPM1-ALK)
  pIC50: 5.59
134 cancer cell lines; read-out: IC50 in cell proliferation assay, cell line T24
  pIC50: 5.29
134 cancer cell lines; read-out: IC50 in cell proliferation assay, cell line TT (RET p.C634W)
  pIC50: 7.72
134 cancer cell lines; read-out: IC50 in cell proliferation assay, cell line VA-ES-BJ
  pIC50: 5.55
AP-1060 (ETV6-NTRK3)
  pIC50: 5.40
